Results published in patent US10899815B2, “Compositions and methods of using islet neogenesis peptides and analogs thereof” (SHENZHEN HIGHTIDE BIOPHARMACEUTICAL, LTD., priority 2013, dated 2021).
One block for each substance: values may come before it. Ends that are not written are not given here.

Experiments:
[1] = Peptide stability in mouse plasma; format: in vitro ADME; settings: 100 μg/mL, 37° C., LC-MS/MS, FIG. 3 and FIG. 5
Procedure: The stability of peptides was also tested in mouse and human plasma. Briefly, a certain amount of peptides and eucatropine powder (positive control) was accurately weighed. Test compounds were dissolved in 50% methanol-water solution and diluted to 20 mg/mL, and eucatropine was dissolved in dimethylsulfoxide (DMSO) and diluted to 10 mM, as a stock solution. Eucatropine stock solution was diluted to 0.2 mM with DMSO as a working solution. A stop reagent was prepared containing 200 ng/mL midazolam and tolbutamide in acetonitrile. A volume of 300 μL of stop solution was added to each well of a 96-well deep-well plate placed on ice beforehand.
For the stability studies, peptides and eucatropine were spiked into plasma respectively, mixed well, and then 100 μL of each mixture solution was transferred into the pre-cooled stop reagent as 0 time point sample. The remaining mixtures were incubated in a 37° C. water bath with shaking at 100 rpm (n=2). The final incubation concentration was 1 μM for eucatropine and 100 μg/mL for all test compounds.
At desired time points, 100 μl, of incubation mixture was transferred to the stop reagent to precipitate proteins. Samples were vortexed and centrifuged at RCF 5000-g for 10 minutes, and supernatant was transferred to a test plate. The samples were analyzed by LC-MS/MS.
Slope was calculated by plotting the natural logarithm of the percentage or remaining amount of test compounds and time, and T12 was calculated in accordance with the following formula.
For stability in mouse plasma, the incubation time was 0, 5, 15, 30 and 60 min for Peptide 1 and eucatropine, 0, 15, 30, 60, 120, 240 and 480 min for Peptide 12, Peptide 16 and Peptide 29.
In another stability study in mouse plasma, the incubation time was 0, 30, 60 and 120 min for Peptide 2 and eucatropine; 0, 30, 60, 120, 240 and 960 min for Peptide 52 and Peptide 54.

[2] = tested on: pancreatic islets; assay: Glucose-stimulated insulin secretion (GSIS) of isolated islets; format: cell-based, Sprague-Dawley (SD) rats; settings: rat islets, 12.0 mM glucose, 10 μg/mL peptide (GLP-1 100 nM), 60 min, FIG. 8
Procedure: The pancreases were procured from male adult Sprague-Dawley (SD) rats. After 7 days acclimation, the animals were sacrificed by cervical dislocation and the entire pancreas was removed and digested with collagenase to isolate islets. After digestion, islets were maintained at 37° C. in RPMI 1640 (Carlsbad, Calif., USA) pH 7.4, containing 10% (v/v) fetal calf serum, 1% penicillin/streptomycin, and 10 mM glucose in a humid atmosphere (5% CO2/95% O2), without the addition of any compound (control), or with the addition of 100 nM glucagon like peptide-1 (GLP-1); or 10 μg/mL Peptide 1, Peptide 12, or Peptide 16, as summarized in Table 4 below. Cultured islets were rinsed in Krebs-Ringer bicarbonate buffer (KRB), pH 7.4, previously gassed with a mixture CO2/O2 (5/95%), and pre-incubated in 1.0 ml KRB containing 0.5% (w/v) BSA and 1.5 mM glucose at 37° C. for 45 min. After this period, groups of 5 islets were incubated in 0.6 ml KRB with the addition of 1.5 or 12.0 mM glucose, with or without the addition of peptides for 60 min. At the end of the incubation period, aliquots of the medium were collected for insulin quantitation.

[3] = Pharmacokinetics in rat; format: in vivo, Sprague-Dawley (SD) rats; settings: rat, in vivo, 25 mg/kg
Procedure: After 7 days acclimation, male Sprague-Dawley (SD) rats weighing 210-250 g, or male C57BL/6 mice, weighing 19-24 g, in good health were used in the study. Peptide 1, Peptide 12 and Peptide 16 were dissolved in sterile normal saline and then they were injected via subcutaneous (sc) bolus or intravenous (iv) bolus at the dose level of 25 mg/kg. Three animals in each group were used for blood collection at the time point of 5 min, 15 min, 30 min, 1 h, 2 h, 4 h, 6 h, 8 h and 24 h post-dose. Blood samples (approximately 400 μL) were collected and placed into tubes containing EDTA-K2 and centrifuged at 8000 rpm for 6 minutes at 4° C. to separate plasma front the samples. The resulting plasma was stored frozen at −80° C. until being analyzed. Plasma concentrations of peptides were determined using tandem mass spectrometry (LC-MS/MS) analysis. A non-compartmental module of WinNonlin® Professional 5.2 (Pharsight; St. Louis, Mo.), was used to calculate PK parameters. The abbreviation AUC(0-t) represents area under the curve front the time of dosing to the time of the last observation, the AUC(0-∞) represents area under the curve from the time of dosing to infinity, and the Cmax represents maximum concentration detected.

[4] = Peptide stability in culture medium; format: physicochemical; settings: F-12K medium, 0.25 mg/mL, 37° C., 0-72 hours, HPLC, FIG. 2
Procedure: To determine the stability of peptides in culture medium, a certain amount of selected peptides was accurately weighed and dissolved in distilled water to 5 mg/mL as a stock solution. The stock solution was diluted to 0.25 mg/mL with F-12K medium (Gibco-BRL, Gaithersburg, Md., USA) as working solution. A volume of 100 μL of each working solution was transferred into individual sample vials. The sample vials were incubated in a 37° C. incubator for 0, 24, 48 and 72 hours before being analyzed and quantitated by HPLC.

[5] = tested on: STZ induced diabetic mice model; assay: Efficacy in streptozotocin (STZ) induced diabetic mice model; format: in vivo, C57BL/6J mice; settings: for body weight or pancreas weight: 5 mg/kg or 25 mg/kg for 20 days
Procedure: After acclimatization in the animal facility for one week, 6-8 weeks old C57BL/6J mice were administered low dose STZ at 40 mg/kg in citrate buffer for 5 consecutive days to establish a TID animal model. Mice with blood glucose greater than 16.7 mmol/L at 5 days post last STZ injection were included in the study. These mice were then treated with INGAP-PP (Peptide 1) or Peptide 7 at the closes of 5 mg/kg (2.5 mg/kg, bid (twice a day)) or 25 mg/kg (12.5 mg/kg, bid) for 20 days before sacrifices. Two additional groups of diabetic mice were administered either saline or a peptide (Peptide 3) composed of a scrambled sequence of amino acids from Peptide 1 as control groups. Blood glucose and insulin levels were measured, and 20 days post the last dosing of test agents, an oral glucose tolerance test (OGTT) was performed in 6 hour fasted animals to determine the effect of Peptide 1 and Peptide 7. Blood samples obtained from the tail cut for glucose determination were detected with an ACCU-CHEK™ glucometer (Roche, ACCU-CHEK® Active), and insulin levels were determined with Rat/Mouse Insulin Elisa kit (Millipore, Billerica, Mass. USA). For the OGTT, after the measurement of the basal glucose concentration (T=−30 min), mice received an oral glucose challenge at 2 g/kg and glucose values were determined by glucometer at 0, 15, 30, 60, 90 and 120 min.

[6] = tested on: ARIP cells; assay: ARIP cell proliferation (BrdU ELISA / CellTiter-Glo); format: cell-based, rat; settings: 100 nM peptide, FIG. 1
Procedure: To measure cell proliferation, a bromodeoxyuridine (BrdU) ELISA assay was performed. Briefly, ARIP cells (ATCC (American Type Culture Collection), Manassas, Va. USA), a rat pancreatic ductal cell line, were cultured in F-12K medium (Gibco-BRL, Gaithersburg, Md., USA) containing 10% fetal bovine serum (FBS; HyClone, Thermo Fisher Scientific Inc.; Waltham, Mass. USA), 100 μg/ml streptomycin and 100 μg/ml penicillin in a cell incubator. ARIP cells were seeded into 96-well culture plates at 8000 or 0 (as blank control) cells/well in a volume of 50 μl cell culture medium and incubated overnight for the following experiments. On the second day, after replacing the medium with medium without serum, 50 μl serum-free cell culture medium containing test peptides at a series concentrations (final concentrations were 10 μM, 5 μM, 1 μM, 500 nM, 100 nM, 50 nM, 10 nM and 1 nM) were added to seeded cells. Medium without compound was added to negative control and background control wells. […] The absorbance at 450 nm (reference wavelength 690 nm) on an EnVision™ plate reader (Perkin Elmer, Boston, Mass.) within 5 min. after adding the stop solution was measured.
To test for cell viability, a CellTiter-Glo™ (CTG) assay (Promega, Madison, Wis.) was performed. […] Luminescence signal was quantified on an EnVision™ plate reader after a 10 minute incubation at room temperature.

[7] = tested on: normal C57BL/6J mice; assay: Induction of small β-cell clusters in normal mice; format: in vivo; settings: for number of islets, islet size ranging from 2.1 to 0.7: normal female C57BL/6J mice, 25 mg/kg per day for 10 days, islet size as Log [μm^2], FIG. 7; for body weight, blood glucose, plasma insulin, pancreas insulin, or pancreas weight: compared to saline group
Procedure: After a 1-week acclimation, C57BL/6J female mice were randomly divided into 4 groups. The two control groups received either 10 mL/kg sterile normal saline (n=4) or scrambled peptide (Peptide 3, 25 mg/kg) (n=5) via subcutaneous injection for 10 days. The other two groups received INGAP-PP (Peptide 1) or INGAP-PP analog Peptide 7 at a dose of 25 mg/kg per day respectively (n=7 per group) for the same period. Body weight and 6 hour fasting blood glucose were measured before treatment and after the last dosing of treatment. Plasma and pancreatic insulin were also measured at the end of the study. On day 11, the pancreas was removed from each animal, cleared of fat and lymph nodes, weighed, and fixed in 10% neutral buffered formalin (NBF) for no longer than 24 hours before processing for morphometric analysis.
Immunohistochemistry analysis was used to determine pancreatic islet size distribution.

[8] = normal mice, 25 mg/kg sc for 10 days

Substance: Ac-IGLHDPSHGTLPAGS-NH2 [Peptide 29, Ac-IGLHDPSHGTLPAGS-NH2]
- stability in mouse plasma [1]: good stability in mouse plasma and were more stable than INGAP-PP

- PK properties (AUC and Cmax) compared to INGAP-PP [3]: marked improved PK properties
Substance: Ac-IGLHDPSHGTLPAGS-OH [Peptide 12, Ac-IGLHDPSHGTLPAGS-OH]
- glucose-stimulated insulin secretion versus islets without peptides [2]: released significantly more insulin

Substance: Ac-IGLHDPTQGTEPAGE-OH [Peptide 52, Ac-IGLHDPTQGTEPAGE-OH]
- stability in mouse plasma [1]: good stability in mouse plasma and were significantly more stable than HIP

Substance: Ac-IGLHDPTQGTEPNGE-OH [Peptide 54, Ac-IGLHDPTQGTEPNGE-OH]
- stability in mouse plasma [1]: good stability in mouse plasma and were significantly more stable than HIP

Substance: GLP-1: Glucagon like peptide-1, positive control at 100 nM in GSIS (HAEGTFTSDVSSYLEGQAAKEFIAWLVKGR; ends and bridges not checked; UniProt P01275 98-127, looked up) [reference compound]
- glucose-stimulated insulin secretion versus islets without peptides [2]: released significantly more insulin

Substance: H-IGLHAPSHGTLPAGS-OH [Peptide 8]
- stability in culture medium [4]: significantly more stable than INGAP-PP peptide

Substance: H-IGLHDPSHGTLPAGS-OH [Peptide 7, H-IGLHDPSHGTLPAGS-OH]
- body weight or pancreas weight [5]: did not affect
- plasma insulin levels ([5]; 25 mg/kg dose group, end of 20-day period, FIG. 6B): significantly different from saline controls and almost restored to the level of the naive group
- glucose tolerance (OGTT) ([5]; OGTT 2 g/kg glucose, day 21, FIG. 6C): improved glucose tolerance
- stability in culture medium [4]: significantly more stable than INGAP-PP peptide
- percentage increase in cell number [6]: significantly higher percentage increase in cell number
- number of islets, islet size ranging from 2.1 to 0.7 [7]: increased significantly
- body weight, blood glucose, plasma insulin, pancreas insulin, or pancreas weight [7, 8]: did not affect

Substance: H-IGLHDPSHGTLPNGS-OH [Peptide 1, H-IGLHDPSHGTLPNGS-OH, reference compound]
- body weight or pancreas weight [5]: did not affect
- glucose-stimulated insulin secretion versus islets without peptides [2]: no stimulation
- number of islets, islet size ranging from 2.1 to 0.7 [7]: only observed in islet size of 2.1
- body weight, blood glucose, plasma insulin, pancreas insulin, or pancreas weight [7, 8]: did not affect

Substance: H-SHPNGSGTIGLHDPL-OH [Peptide 3, H-SHPNG SGTIG LHDPL-OH]
- all parameters measured, versus normal saline [7, 8]: no difference
- body weight, blood glucose, plasma insulin, pancreas insulin, or pancreas weight [7, 8]: did not affect
